Assay results reported in publication PMC7211202 (Investigational New Drugs, 2019).
“And” between values parts separate entries of the source, which are not always exact repeats. Equal entries are not always repeated.

Test: Patient incidence of adverse events (CTCAE version 4.0)
Type: in vivo
Source text: Each patient was monitored for 21 days for the occurrence of dose-limiting toxicities (DLTs), defined as febrile neutropenia, neutropenic infection, grade 4 neutropenia lasting >7 days, grade ≥ 3 thrombocytopenia lasting >7 days (solid tumors only), grade 3 thrombocytopenia with grade ≥ 2 bleeding (solid tumors only), grade 3 or 4 thrombocytopenia with grade > 1 bleeding (multiple myeloma only), grade 4 thrombocytopenia (solid tumors only), or grade 4 thrombocytopenia lasting >14 days (multiple myeloma only), or as grade ≥ 3 nausea, vomiting, or diarrhea after support; grade 3 fatigue lasting >7 days; any other grade ≥ 3 adverse event (AE); grade ≥ 3 kidney injury (multiple myeloma only), or treatment-related AEs not returning to grade ≤ 1 (solid tumors only) per Common Terminology Criteria for Adverse Events (CTCAE), version 4.0. The MTD was defined as the maximum dose, at which the probability of a DLT was ≤25% in Part 1A and ≤ 33% in Parts 1B and 1C. Treatment continued until disease progression, intolerable toxicity, or withdrawal of consent.
AEs were recorded for all enrolled patients.

[1] = dose escalation, 300 mg (n = 4)
[2] = dose escalation, 360 mg (n = 4)
[3] = dose escalation, 480 mg (n = 6)
[4] = dose escalation, Total (n = 39)

With `CC(C)[C@@H](CS(=O)(=O)C(C)C)N1C(=O)[C@@](C)(CC(=O)O)C[C@H](c2cccc(Cl)c2)[C@H]1c1ccc(Cl)cc1` [AMG 232] the “Treatment-related AE: Upper abdominal pain” value [1] was 1 (25) n (%), the “Treatment-related AE: Vomiting” value [1] was 3 (75) n (%) and the “Treatment-related serious AE: Abdominal pain (grade 2)” value [1] was 0 n (%). The “Treatment-related serious AE: Dehydration (grade 2)” value [1] was 1 (25) n (%), the “Treatment-related serious AE: Diarrhea” value [1] was 1 (25) n (%) and the “Treatment-related serious AE: Diarrhea, Grade 2” value [1] was 0 n (%). The “Treatment-related serious AE: Diarrhea, Grade 3” value [1] was 1 (25) n (%), the “Treatment-related serious AE: Febrile neutropenia (grade 3)” value [1] was 1 (25) n (%) and the “Treatment-related serious AE: Hematemesis (grade 3)” value [1] was 0 n (%). The “Treatment-related serious AE: Nausea (grade 3)” value [1] was 0 n (%), the “Treatment-related serious AE: Neutropenia (grade 4)” value [1] was 0 n (%) and the “Treatment-related serious AE: Non-cardiac chest pain (grade 3)” value [1] was 0 n (%). For the same compound, the “Treatment-related serious AE: Thrombocytopenia (grade 4)” value [1] was 0 n (%), the “Treatment-related serious AE: Vomiting” value [1] was 2 (50) n (%) and the “Treatment-related serious AE: Vomiting, Grade 2” value [1] was 1 (25) n (%). For the same compound, the “Treatment-related serious AE: Vomiting, Grade 3” value [1] was 1 (25) n (%), the “Patients with any treatment-emergent AE” value [2] was 4 (100) n (%) and the “Patients with any treatment-emergent serious AE” value [2] was 0 n (%). The “Patients with any treatment-related AE” value [2] was 4 (100) n (%), the “Patients with any treatment-related AE, Grade 3” value (“Patients … Grade 3” below) [2] was 3 (75) n (%) and the “Patients with any treatment-related AE, Grade 4” value (“Patients … Grade 4” below) [2] was 2 (50) n (%). The “Patients with any treatment-related AE, Grade 5” value (“Patients … Grade 5” below) [2] was 0 n (%), the “Patients with any treatment-related serious AE” value [2] was 0 n (%) and the “Treatment-related AE: Abdominal pain” value [2] was 1 (25) n (%). The “Treatment-related AE: Anemia” value [2] was 2 (50) n (%), the “Treatment-related AE: Asthenia” value [2] was 2 (50) n (%) and the “Treatment-related AE: Decrease appetite” value [2] was 3 (75) n (%). For the same compound, the “Treatment-related AE: Diarrhea” value [2] was 4 (100) n (%), the “Treatment-related AE: Dysgeusia” value [2] was 1 (25) n (%) and the “Treatment-related AE: Fatigue” value [2] was 0 n (%). The “Treatment-related AE: Myalgia” value [2] was 2 (50) n (%), the “Treatment-related AE: Nausea” value [2] was 4 (100) n (%) and the “Treatment-related AE: Neutropenia” value [2] was 3 (75) n (%). For the same compound, the “Treatment-related AE: Thrombocytopenia” value [2] was 4 (100) n (%), the “Treatment-related AE: Upper abdominal pain” value [2] was 1 (25) n (%) and the “Treatment-related AE: Vomiting” value [2] was 3 (75) n (%). For the same compound, the “Treatment-related serious AE: Abdominal pain (grade 2)” value [2] was 0 n (%), the “Treatment-related serious AE: Dehydration (grade 2)” value [2] was 0 n (%) and the “Treatment-related serious AE: Diarrhea” value [2] was 0 n (%). The “Treatment-related serious AE: Diarrhea, Grade 2” value [2] was 0 n (%), the “Treatment-related serious AE: Diarrhea, Grade 3” value [2] was 0 n (%) and the “Treatment-related serious AE: Febrile neutropenia (grade 3)” value [2] was 0 n (%). For the same compound, the “Treatment-related serious AE: Hematemesis (grade 3)” value [2] was 0 n (%), the “Treatment-related serious AE: Nausea (grade 3)” value [2] was 0 n (%) and the “Treatment-related serious AE: Neutropenia (grade 4)” value [2] was 0 n (%). For the same compound, the “Treatment-related serious AE: Non-cardiac chest pain (grade 3)” value [2] was 0 n (%), the “Treatment-related serious AE: Thrombocytopenia (grade 4)” value [2] was 0 n (%) and the “Treatment-related serious AE: Vomiting” value [2] was 0 n (%). The “Treatment-related serious AE: Vomiting, Grade 2” value [2] was 0 n (%), the “Treatment-related serious AE: Vomiting, Grade 3” value [2] was 0 n (%) and the “Patients with any treatment-emergent AE” value [3] was 6 (100) n (%). The “Patients with any treatment-emergent serious AE” value [3] was 4 (67) n (%), the “Patients with any treatment-related AE” value [3] was 6 (100) n (%) and the “Patients … Grade 3” value [3] was 3 (50) n (%). For the same compound, the “Patients … Grade 4” value [3] was 3 (50) n (%), the “Patients … Grade 5” value [3] was 0 n (%) and the “Patients with any treatment-related serious AE” value [3] was 2 (33) n (%). The “Treatment-related AE: Abdominal pain” value [3] was 0 n (%), the “Treatment-related AE: Anemia” value [3] was 2 (33) n (%) and the “Treatment-related AE: Asthenia” value [3] was 0 n (%). For the same compound, the “Treatment-related AE: Decrease appetite” value [3] was 1 (17) n (%), the “Treatment-related AE: Diarrhea” value [3] was 6 (100) n (%) and the “Treatment-related AE: Dysgeusia” value [3] was 0 n (%). The “Treatment-related AE: Fatigue” value [3] was 4 (67) n (%), the “Treatment-related AE: Myalgia” value [3] was 1 (17) n (%) and the “Treatment-related AE: Nausea” value [3] was 3 (50) n (%). For the same compound, the “Treatment-related AE: Neutropenia” value [3] was 3 (50) n (%), the “Treatment-related AE: Thrombocytopenia” value [3] was 5 (83) n (%) and the “Treatment-related AE: Upper abdominal pain” value [3] was 0 n (%). The “Treatment-related AE: Vomiting” value [3] was 4 (67) n (%), the “Treatment-related serious AE: Abdominal pain (grade 2)” value [3] was 0 n (%) and the “Treatment-related serious AE: Dehydration (grade 2)” value [3] was 0 n (%). For the same compound, the “Treatment-related serious AE: Diarrhea” value [3] was 0 n (%), the “Treatment-related serious AE: Diarrhea, Grade 2” value [3] was 0 n (%) and the “Treatment-related serious AE: Diarrhea, Grade 3” value [3] was 0 n (%). For the same compound, the “Treatment-related serious AE: Febrile neutropenia (grade 3)” value [3] was 0 n (%), the “Treatment-related serious AE: Hematemesis (grade 3)” value [3] was 1 (17) n (%) and the “Treatment-related serious AE: Nausea (grade 3)” value [3] was 0 n (%). For the same compound, the “Treatment-related serious AE: Neutropenia (grade 4)” value [3] was 1 (17) n (%), the “Treatment-related serious AE: Non-cardiac chest pain (grade 3)” value [3] was 0 n (%) and the “Treatment-related serious AE: Thrombocytopenia (grade 4)” value [3] was 2 (33) n (%). The “Treatment-related serious AE: Vomiting” value [3] was 0 n (%), the “Treatment-related serious AE: Vomiting, Grade 2” value [3] was 0 n (%) and the “Treatment-related serious AE: Vomiting, Grade 3” value [3] was 0 n (%). For the same compound, the “Patients with any treatment-emergent AE” value [4] was 37 (95%) n (%) and 37 (95) n (%), the “Patients with any treatment-emergent serious AE” value [4] was 14 (36%) n (%) and 14 (36) n (%) and the “Patients … Grade 3” value [4] was 13 (33) n (%). The “Patients … Grade 4” value [4] was 8 (21) n (%), the “Patients … Grade 5” value [4] was 0 n (%) and the “Treatment-related AE: Abdominal pain” value [4] was 4 (10) n (%). The “Treatment-related AE: Anemia” value [4] was 5 (13) n (%), the “Treatment-related AE: Asthenia” value [4] was 4 (10) n (%) and the “Treatment-related AE: Decrease appetite” value [4] was 10 (26) n (%). For the same compound, the “Treatment-related AE: Diarrhea” value [4] was 25 (64) n (%), the “Treatment-related AE: Dysgeusia” value [4] was 4 (10) n (%) and the “Treatment-related AE: Fatigue” value [4] was 16 (41) n (%). For the same compound, the “Treatment-related AE: Myalgia” value [4] was 4 (10) n (%), the “Treatment-related AE: Nausea” value [4] was 20 (51) n (%) and the “Treatment-related AE: Neutropenia” value [4] was 8 (21) n (%). The “Treatment-related AE: Thrombocytopenia” value [4] was 14 (36) n (%), the “Treatment-related AE: Upper abdominal pain” value [4] was 4 (10) n (%) and the “Treatment-related AE: Vomiting” value [4] was 18 (46) n (%). The “Treatment-related serious AE: Abdominal pain (grade 2)” value [4] was 1 (3) n (%), the “Treatment-related serious AE: Dehydration (grade 2)” value [4] was 1 (3) n (%) and the “Treatment-related serious AE: Diarrhea” value [4] was 2 (5) n (%). For the same compound, the “Treatment-related serious AE: Diarrhea, Grade 2” value [4] was 1 (3) n (%), the “Treatment-related serious AE: Diarrhea, Grade 3” value [4] was 1 (3) n (%) and the “Treatment-related serious AE: Febrile neutropenia (grade 3)” value [4] was 1 (3) n (%). The “Treatment-related serious AE: Hematemesis (grade 3)” value [4] was 1 (3) n (%), the “Treatment-related serious AE: Nausea (grade 3)” value [4] was 1 (3) n (%) and the “Treatment-related serious AE: Neutropenia (grade 4)” value [4] was 1 (3) n (%). For the same compound, the “Treatment-related serious AE: Non-cardiac chest pain (grade 3)” value [4] was 1 (3) n (%), the “Treatment-related serious AE: Thrombocytopenia (grade 4)” value [4] was 2 (5) n (%) and the “Treatment-related serious AE: Vomiting” value [4] was 3 (8) n (%). The “Treatment-related serious AE: Vomiting, Grade 2” value [4] was 1 (3) n (%), the “Treatment-related serious AE: Vomiting, Grade 3” value [4] was 2 (5) n (%) and the “Treatment-emergent AE: abdominal pain” value (dose escalation, all patients) was 21%. For the same compound, the “Treatment-emergent AE: anemia” value (dose escalation, all patients) was 26%, the “Treatment-emergent AE: decreased appetite” value (dose escalation, all patients) was 39% and the “Treatment-emergent AE: diarrhea” value (dose escalation, all patients) was 67%. The “Treatment-emergent AE: fatigue” value (dose escalation, all patients) was 41%, the “Treatment-emergent AE: nausea” value (dose escalation, all patients) was 59% and the “Treatment-emergent AE: neutropenia” value (dose escalation, all patients) was 26%. The “Treatment-emergent AE: thrombocytopenia” value (dose escalation, all patients) was 36%, the “Treatment-emergent AE: vomiting” value (dose escalation, all patients) was 51% and the “Treatment-related AE: Diarrhea” value (dose escalation, all patients) was 64%. The “Treatment-related AE: Fatigue” value (dose escalation, all patients) was 41%, the “Treatment-related AE: Nausea” value (dose escalation, all patients) was 51% and the “Treatment-related AE: Neutropenia” value (dose escalation, all patients) was 21%. The “Treatment-related AE: Thrombocytopenia” value (dose escalation, all patients) was 36%, the “Treatment-related AE: Vomiting” value (dose escalation, all patients) was 46% and the “Treatment-related AE: decreased appetite” value (dose escalation, all patients) was 26%. For the same compound, the “Patients discontinuing treatment due to AEs” value (entire study (107 patients)) was 21 n.
